One assay concerns the target T1, Stat3 (Homo sapiens, UniProt P40763).
T1 construct: endogenous in cells; host or cells: HepG2
Kind of assay: Immunoblot assay: IL-6-mediated phosphorylation of Stat3 in HepG2 cells. The format is cell-based. The procedure:
Immunoblot assay. The human hepatocellular carcinoma cell line (HepG2) was grown in 6-well plates under standard conditions. […] Prestained molecular weight markers (Biorad, Hercules, Calif.) were included in each gel. […] Membranes were stripped between antibody probing using Restore™ Western Blot Stripping Buffer (Thermo Fisher Scientific Inc., Waltham, Mass.) per the manufacturer's instructions. Horseradish peroxidase-conjugated goat-anti-mouse IgG was used as the secondary antibody (Invitrogen Carlsbad, Calif.) and the membranes were developed with enhanced chemiluminescence (ECL) detection system (Amersham Life Sciences Inc.; Arlington Heights, Ill.).
Ligand-mediated pStat3 and pStat1 inhibition assays. […] Membranes are probed serially with antibody against Stat1 pY701 or Stat3 pY705 followed by antibody against Stat 1 or Stat3 (Transduction labs, Lexington, Ky.) then antibody against β-actin (Abcam, Cambridge, Mass.). Membranes are stripped between antibody probings using Restore™ Western Blot Stripping Buffer (Thermo Fisher Scientific Inc., Waltham, Mass.) per the manufacturer's instructions. Horseradish peroxidase-conjugated goat-anti-mouse IgG is used as the secondary antibody (Invitrogen Carlsbad, Calif.) and the membranes are developed with enhanced chemiluminescence (ECL) detection system (Amersham Life Sciences Inc.; Arlington Heights, Ill.). Band intensities are quantified by densitometry. The value of each pStat3 band is divided by its corresponding total Stat3 band intensity; the results are normalized to the DMSO-treated control value. This value was plotted as a function of the log compound concentration. The best-fitting curve is determined using 4-Parameter Logistic Model/Dose Response/XLfit 4.2, IDBS software and was used to calculate the IC50 value.

The next assay deals with T2, Stat1 (Homo sapiens, UniProt P42224).
T2 construct: endogenous in cells; host or cells: HepG2
T2 sequence (P42224 1-750): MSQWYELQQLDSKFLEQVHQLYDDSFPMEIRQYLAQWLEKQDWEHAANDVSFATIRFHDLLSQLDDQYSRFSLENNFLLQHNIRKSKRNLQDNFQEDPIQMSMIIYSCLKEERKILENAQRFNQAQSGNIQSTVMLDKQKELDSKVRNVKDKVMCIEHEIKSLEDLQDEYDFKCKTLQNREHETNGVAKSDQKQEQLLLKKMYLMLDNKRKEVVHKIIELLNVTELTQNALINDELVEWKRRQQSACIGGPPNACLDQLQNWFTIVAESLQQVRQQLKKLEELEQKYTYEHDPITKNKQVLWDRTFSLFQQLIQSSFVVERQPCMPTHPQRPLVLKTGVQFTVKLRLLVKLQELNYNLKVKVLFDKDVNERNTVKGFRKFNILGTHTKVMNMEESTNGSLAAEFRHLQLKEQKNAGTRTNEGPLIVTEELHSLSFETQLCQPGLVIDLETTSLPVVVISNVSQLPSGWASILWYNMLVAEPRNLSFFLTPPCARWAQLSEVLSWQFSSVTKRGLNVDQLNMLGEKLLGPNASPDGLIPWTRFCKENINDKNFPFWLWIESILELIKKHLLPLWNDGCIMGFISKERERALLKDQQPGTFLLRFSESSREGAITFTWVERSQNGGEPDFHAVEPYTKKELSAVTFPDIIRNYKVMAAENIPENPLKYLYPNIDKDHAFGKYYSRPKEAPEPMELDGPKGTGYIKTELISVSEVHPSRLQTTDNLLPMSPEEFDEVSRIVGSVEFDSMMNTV
Kind of assay: Immunoblot assay: IFN-γ-mediated phosphorylation of Stat1 in HepG2 cells. As to conditions: 300 μM, 1 hour at 37° C. before IFN-γ stimulation. The format is cell-based. The procedure: Immunoblot assay. The human hepatocellular carcinoma cell line (HepG2) was grown in 6-well plates under standard conditions. Cells were pretreated with compounds (0, 1, 3, 10, 30, 100 and 300 uM) for 1 hour then stimulated under optimal conditions with either interferon gamma (IFN-γ; 30 ng/ml for 30 min) to activate Stat1 or interleukin-6 (IL-6; 30 ng/ml for 30 min) to activate Stat3 (30-31). Cultures were then harvested and proteins extracted using high-salt buffer, as described (Shao et al., 2006). Briefly, extracts were mixed with 2× sodium dodecyl sulfate (SDS) sample buffer (125 mmol/L Tris-HCL pH 6.8; 4% SDS; 20% glycerol; 10% 2-mercaptoethanol) at a 1:1 ratio and heated for 5 minutes at 100° C. Proteins (20 μg) were separated by 7.5% SDS-PAGE and transferred to polyvinylidene fluoride (PVDF) membrane (Millipore, Waltham, Mass.) and immunoblotted. Prestained molecular weight markers (Biorad, Hercules, Calif.) were included in each gel. Membranes were probed serially with antibody against Stat1 pY^701 or Stat3 pY^705 followed by antibody against Stat1 or Stat3 (Transduction labs, Lexington, Ky.) then antibody against β-actin (Abcam, Cambridge, Mass.). Membranes were stripped between antibody probing using Restore™ Western Blot Stripping Buffer (Thermo Fisher Scientific Inc., Waltham, Mass.) per the manufacturer's instructions. Horseradish peroxidase-conjugated goat-anti-mouse IgG was used as the secondary antibody (Invitrogen Carlsbad, Calif.) and the membranes were developed with enhanced chemiluminescence (ECL) detection system (Amersham Life Sciences Inc.; Arlington Heights, Ill.).
EXP IIC. Ligand-mediated pStat3 and pStat1 inhibition assays. […] Briefly, human hepatocellular carcinoma cells (HepG2) are grown in 6-well plates and pretreated with compounds (0, 0.1, 0.3, 1, 3, 10, 30, 100 μM) for 1 hour then stimulated under optimal conditions with either interleukin-6 (IL-6; 30 ng/ml for 30 min) to activate Stat3 or interferon gamma (IFN-γ; 30 ng/ml for 30 min) to activate Stat1. Cells are harvested and proteins extracted using high-salt buffer, mixed with 2× sodium dodecyl sulfate (SDS) sample buffer (125 mmol/L Tris-HCL pH 6.8; 4% SDS; 20% glycerol; 10% 2-mercaptoethanol) at a 1:1 ratio then heated for 5 minutes at 100° C. Proteins (20 μg) are separated by 7.5% SDS-PAGE and transferred to polyvinylidene fluoride (PVDF) membrane (Millipore, Waltham, Mass.) and immunoblotted. Membranes are probed serially with antibody against Stat1 pY701 or Stat3 pY705 followed by antibody against Stat 1 or Stat3 (Transduction labs, Lexington, Ky.) then antibody against β-actin (Abcam, Cambridge, Mass.). Membranes are stripped between antibody probings using Restore™ Western Blot Stripping Buffer (Thermo Fisher Scientific Inc., Waltham, Mass.) per the manufacturer's instructions. Horseradish peroxidase-conjugated goat-anti-mouse IgG is used as the secondary antibody (Invitrogen Carlsbad, Calif.) and the membranes are developed with enhanced chemiluminescence (ECL) detection system (Amersham Life Sciences Inc.; Arlington Heights, Ill.). Band intensities are quantified by densitometry. The value of each pStat3 band is divided by its corresponding total Stat3 band intensity; the results are normalized to the DMSO-treated control value. This value was plotted as a function of the log compound concentration. The best-fitting curve is determined using 4-Parameter Logistic Model/Dose Response/XLfit 4.2, IDBS software and was used to calculate the IC50 value.

For a further assay, the target named is T3, GFP-Stat3α (Homo sapiens, UniProt P40763).
T3 construct: expressed in transfected cells; host or cells: murine embryonic fibroblasts (MEF) deficient in endogenous Stat3
T3 sequence (P40763 whole entry): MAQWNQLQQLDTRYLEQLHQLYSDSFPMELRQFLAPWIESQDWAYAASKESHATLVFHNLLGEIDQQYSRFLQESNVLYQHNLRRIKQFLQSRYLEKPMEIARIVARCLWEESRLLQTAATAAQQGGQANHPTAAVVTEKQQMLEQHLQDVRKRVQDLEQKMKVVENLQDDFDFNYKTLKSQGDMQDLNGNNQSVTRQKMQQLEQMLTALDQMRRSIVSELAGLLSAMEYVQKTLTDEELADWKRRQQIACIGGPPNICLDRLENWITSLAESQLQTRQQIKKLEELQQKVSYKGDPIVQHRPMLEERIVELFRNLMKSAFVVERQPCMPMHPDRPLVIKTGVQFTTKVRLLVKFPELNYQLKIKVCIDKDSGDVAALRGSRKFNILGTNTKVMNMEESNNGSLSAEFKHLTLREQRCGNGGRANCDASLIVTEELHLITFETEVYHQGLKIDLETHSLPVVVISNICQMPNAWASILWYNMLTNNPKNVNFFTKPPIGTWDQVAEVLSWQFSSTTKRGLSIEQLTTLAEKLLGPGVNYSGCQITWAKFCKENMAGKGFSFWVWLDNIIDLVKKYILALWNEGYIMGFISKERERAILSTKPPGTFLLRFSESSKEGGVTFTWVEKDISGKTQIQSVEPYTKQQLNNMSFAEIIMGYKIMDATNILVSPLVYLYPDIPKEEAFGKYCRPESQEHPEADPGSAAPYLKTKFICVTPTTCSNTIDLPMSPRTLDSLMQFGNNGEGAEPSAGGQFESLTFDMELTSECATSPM
Kind of assay: High-throughput fluorescence microscopy (HTFM), cytoplasm-to-nucleus translocation inhibition in MEF/GFP-Stat3α cells. The class given is cell-based, murine.

The next assay has as its target T4, Stat3:hSIE complexes (Homo sapiens, UniProt P40763).
T4 construct: endogenous in cells; host or cells: HepG2
Kind of assay: Electrophoretic mobility shift assay (EMSA) with hSIE probe, extracts of IL-6-stimulated HepG2 cells. The class given is biochemical. The conditions noted are these: 300 μM, 60 minutes at 37° C. The procedure:
Electrophoretic Mobility Shift Assay (EMSA): EMSA was performed using the hSIE radiolabeled duplex oligonucleotide as a probe as described (Tweardy et al., 1995). Briefly, high salt extracts were prepared from HepG2 cells incubated without or with IL-6 (30 ng/ml) for 30 minutes. Protein concentration was determined by Bradford Assay and 20 ug of extract was incubated with compound (300 uM) for 60 minutes at 37° C. […] Gels were dried and autoradiographed.

In another assay the test system is human leukemic cell line. Kind of assay: Leukemic cell line (AML) apoptosis assay. The format is cell-based.
The test system of another assay is MDA-MB-231. The conditions noted are these: 5 mg/kg every 2-3 days; cited from earlier work.
The subject of assay [1] is breast cancer cells with constitutively activated Stat3. The conditions noted are these: cited from earlier work.
[2] abbreviates: HepG2, compound 1 hour, IL-6 30 ng/ml 30 min, read-out: pStat3 IC50 (IL-6-mediated phosphorylation of Stat3).
Where [3] appears, read: MEF/GFP-Stat3α, IL-6 200 ng/ml and IL-6sR 250 ng/ml 30 min, read-out: HTM IC50 (ligand-mediated nuclear translocation of GFP-Stat3α).

“Also recorded” adds a separate entry of the source. Read-outs that look alike come from different tables or passages of the source.

T1 sequence (P40763 2-770 limits assumed): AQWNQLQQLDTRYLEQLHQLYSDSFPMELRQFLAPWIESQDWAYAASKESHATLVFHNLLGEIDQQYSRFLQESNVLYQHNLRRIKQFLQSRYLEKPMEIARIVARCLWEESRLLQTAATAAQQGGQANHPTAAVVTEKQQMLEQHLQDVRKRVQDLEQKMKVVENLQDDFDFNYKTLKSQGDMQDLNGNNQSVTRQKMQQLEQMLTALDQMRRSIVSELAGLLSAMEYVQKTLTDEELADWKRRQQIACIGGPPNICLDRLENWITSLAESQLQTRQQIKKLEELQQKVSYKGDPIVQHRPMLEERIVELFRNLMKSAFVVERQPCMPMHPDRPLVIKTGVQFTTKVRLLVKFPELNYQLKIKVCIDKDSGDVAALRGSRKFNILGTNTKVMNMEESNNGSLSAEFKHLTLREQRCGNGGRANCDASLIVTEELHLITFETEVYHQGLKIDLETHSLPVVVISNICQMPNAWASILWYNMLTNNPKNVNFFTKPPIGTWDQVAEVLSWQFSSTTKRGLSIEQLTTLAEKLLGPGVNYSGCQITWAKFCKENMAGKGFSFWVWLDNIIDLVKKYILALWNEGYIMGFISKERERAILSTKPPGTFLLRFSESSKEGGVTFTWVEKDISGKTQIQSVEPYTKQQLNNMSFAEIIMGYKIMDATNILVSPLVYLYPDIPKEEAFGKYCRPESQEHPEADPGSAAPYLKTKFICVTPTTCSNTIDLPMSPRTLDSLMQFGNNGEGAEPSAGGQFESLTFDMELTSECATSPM
T4 sequence (P40763 2-770 limits assumed, one chain of several): as the sequence (P40763 2-770 limits assumed) above
Method for GFP-Stat3α: Confocal and highthroughput fluorescence microscopy (HTFM) of MEF/GFP-Stat3α cells were performed as described (Huang et al., 2007). […] For HTFM, cells were seeded into 96-well CC3 plates at a density of 5,000 cells/well using an automated plating system. Cells were cultured under standard conditions until 85-90% confluent. Cells were pretreated with compound for 1 hour at 37° C. then stimulated with IL-6 (200 ng/ml) and IL-6sR (250 ng/ml) for 30 minutes. Cells fixed with 4% formaldehyde in PEM Buffer (80 mM Potassium PIPES, pH 6.8, 5 mM EGTA pH 7.0, 2 mM MgCl2) for 30 minutes at 4° C., quenched in 1 mg/ml of NaBH4 (Sigma) in PEM buffer and counterstained for 1 min in 4,6-diamidino-2-phenylindole (DAPI; Sigma; 1 mg/ml) in PEM buffer. […] Plates were analyzed by automated HTFM using the Cell Lab IC Image Cytometer (IC100) platform and CytoshopVersion 2.1 analysis software (Beckman Coulter). Nuclear translocation is quantified by using the fraction localized in the nucleus (FLIN) measurement (Sharp et al., 2006).
High throughput fluorescence microscopy (HTFM), cytoplasm-to-nucleus translocation inhibition assays. […] Briefly, cells are seeded into 96-well CC3 plates at a density of 5,000 cells/well and cultured under standard conditions until 85-90% confluent. Cells are pre-treated with compound for 1 hour at 37° C. then stimulated with IL-6 (100 ng/ml) and IL-6sR (150 ng/ml) for 30 minutes. Cells are fixed with 4% formaldehyde in PEM Buffer (80 mM Potassium PIPES, pH 6.8, 5 mM EGTA pH 7.0, 2 mM MgCl2) for 30 minutes at 4° C., quenched in 1 mg/ml of NaBH4 (Sigma) in PEM buffer and counterstained for 1 min in 4,6-diamidino-2-phenylindole (DAPI; Sigma; 1 mg/ml) in PEM buffer. Plates are analyzed by automated HTFM using the Cell Lab IC Image Cytometer (IC100) platform and CytoshopVersion 2.1 analysis software (Beckman Coulter).
Nuclear translocation is quantified by using the fraction localized in the nucleus (FLIN) measurement. […] The best-fitting curve and IC50 value are determined using 4-Parameter LogisticModel/Dose Response/XLfit 4.2, IDBS software.

Take `O=C(O)c1ccc(C=CC(=O)c2ccc3c(c2)OCCO3)cc1` [Cpd3, 4-[3-(2,3-dihydro-1,4-benzodioxin-6-yl)-3-oxo-1-propen-1-yl]benzoic acid]: the IC50 at Stat3 (setting [2]) is 91 µM; at GFP-Stat3α (setting [3]) it was 131 µM. Besides, on Stat1, the Stat1 phosphorylation blocked entry is listed as “did not”. In addition, the “amount of hSIE shifted (Stat3:hSIE band intensity)” value on Stat3:hSIE complexes is “reduced the amount of hSIE shifted by half or greater”.
With `CCOc1cc(C=C2C(=O)c3ccccc3C2=O)cc(Cl)c1OCc1cccc(C(=O)O)c1` [Cpd3-2, 3-({2-chloro-4-[(1,3-dioxo-1,3-dihydro-2H-inden-2-ylidene)methyl]-6-ethoxyphenoxy}methyl)benzoic acid], the IC50 came to 144 µM at Stat3 (setting [2]) and 150 µM at GFP-Stat3α (setting [3]). Also, the Stat1 phosphorylation blocked result on Stat1 is reported as “did not”.
In the case of `COC(=O)Cc1c(C)c2ccc(OCc3ccc(C(=O)OC)cc3)c(C)c2oc1=O` [Cpd3-7, methyl 4-({[3-(2-methyoxy-2-oxoethyl)-4,8-dimethyl-2-oxo-2H-chromen-7-yl]oxy}methyl)benzoate], at Stat1, the Stat1 phosphorylation blocked result is on record as “did not”.
The same measure, in the same setting: the entry for `CCN1C(=O)C(=Cc2ccc(-c3ccc(C(=O)O)cc3)o2)SC1=S` [Cpd30, 4-{5-[(3-ethyl-4-oxo-2-thioxo-1,3-thiazolidin-5-ylidene)methyl]-2-furyl}benzoic acid] is “did not”.
Take `CCN1C(=O)C(=Cc2ccc(-c3cc(C(=O)O)ccc3Cl)o2)C(=O)N(CC)C1=S` [Cpd30-12, 4-chloro-3-{5-[(1,3-diethyl-4,6-dioxo-2-thioxotetrahydro-5(2H)-pyrimidinylidene)methyl]-2-furyl}benzoic acid]: the values for the IC50 against Stat3 and against GFP-Stat3α were 60 µM and above 300 µM, respectively. The Stat1 phosphorylation blocked result at Stat1 was “blocked”.
In the case of `COc1ccc(S(=O)(=O)Nc2cc(-c3c(O)ccc4ccccc34)c(O)c3ccccc23)cc1` [Cpd188-9], the “leukemic cell line apoptosis activity compared with parent Cpd188” value in the assay on human leukemic cell line was “one log better; also recorded: a log greater activity”.
`Cc1ccc(S(=O)(=O)OCC(=O)Nc2ccc(C(=O)O)c(O)c2)cc1` [S3I-201]: the “growth of nude mice xenografts” value in the assay with MDA-MB-231 is reported as “inhibited growth”.
On to `O=[N+]([O-])c1ccc2c(c1)S(=O)(=O)C=C2` [Stattic], for which the “active concentration range (binding, phosphorylation, translocation, DNA binding, apoptosis)” value in assay [1] was 5 to 20 µM.

The record behind these values is US20110312984A1, “STAT3 INHIBITORS” (priority 2008, published 2011).
